This is an account of results in article PMC5218480 (PLoS ONE, 2017).

For the test, the system named is MV-4-11 cells. Description: Gene expression microarray analysis (Affymetrix PrimeView) and GSEA. It is filed as cell-based, human. The arrangement: RFU PODN (11730768_x_at) / Fold change /veh PODN (11730768_x_at) / RFU LINC00158 (11744669_a_at) / Fold change /veh LINC00158 (11744669_a_at) / RFU DUSP10 (11751237_a_at) / Fold change /veh DUSP10 (11751237_a_at) / RFU ID3 (11757404_x_at) / Fold change /veh ID3 (11757404_x_at) / RFU PLEKHG5 (11737974_s_at) / Fold change /veh PLEKHG5 (11737974_s_at) / RFU LRRC4B (11730491_at) / Fold change /veh LRRC4B (11730491_at) / RFU GIMAP4 (11747438_a_at) / Fold change /veh GIMAP4 (11747438_a_at) / RFU KRT8 (11758183_x_at) / Fold change /veh KRT8 (11758183_x_at) / RFU CNN1 (11734310_a_at) / Fold change /veh CNN1 (11734310_a_at) / RFU VPS37D (11726825_at) / Fold change /veh VPS37D (11726825_at) / RFU C10orf10 (11716522_x_at) / Fold change /veh C10orf10 (11716522_x_at) / RFU KIR2DL2 /// KIR2DL4 /// KIR2DL5A /// KIR2DL5B /// KIR2DS1 /// KIR2DS2 /// KIR2DS3 /// KIR2DS4 /// KIR3DL3 /// KIR3DL3 /// KIR3DS1 (11738374_at) / Fold change /veh KIR2DL2 /// KIR2DL4 /// KIR2DL5A /// KIR2DL5B /// KIR2DS1 /// KIR2DS2 /// KIR2DS3 /// KIR2DS4 /// KIR3DL3 /// KIR3DL3 /// KIR3DS1 (11738374_at) / RFU C1QL1 (11718748_at) / Fold change /veh C1QL1 (11718748_at) / RFU TMPRSS4 (11747572_a_at) / Fold change /veh TMPRSS4 (11747572_a_at) / RFU HAMP (11756126_x_at) / Fold change /veh HAMP (11756126_x_at) / RFU RNFT2 (11725882_a_at) / Fold change /veh RNFT2 (11725882_a_at) / RFU NR4A2 (11747474_a_at) / Fold change /veh NR4A2 (11747474_a_at) / RFU ABCC12 (11746883_a_at) / Fold change /veh ABCC12 (11746883_a_at) / RFU TMEM136 (11760407_x_at) / Fold change /veh TMEM136 (11760407_x_at) / RFU CLDN22 /// WWC2 (11732394_at) / Fold change /veh CLDN22 /// WWC2 (11732394_at) / RFU HLA-DPB1 (11760878_x_at) / Fold change /veh HLA-DPB1 (11760878_x_at) / RFU SPINT1 (11716480_a_at) / Fold change /veh SPINT1 (11716480_a_at) / RFU GAP43 (11754022_s_at) / Fold change /veh GAP43 (11754022_s_at) / RFU A4GNT (11735810_at) / Fold change /veh A4GNT (11735810_at) / RFU PRB3 (11715151_x_at) / Fold change /veh PRB3 (11715151_x_at) / RFU TUBB4B (11761932_at) / Fold change /veh TUBB4B (11761932_at) / RFU CAPN14 (11732068_a_at) / Fold change /veh CAPN14 (11732068_a_at) / RFU TMCC2 (11721928_a_at) / Fold change /veh TMCC2 (11721928_a_at) / RFU IRGQ (11745062_a_at) / Fold change /veh IRGQ (11745062_a_at) / RFU FAM174B (11720279_a_at) / Fold change /veh FAM174B (11720279_a_at) / RFU TMPRSS4 (11748680_a_at) / Fold change /veh TMPRSS4 (11748680_a_at) / RFU FAM212B (11763350_a_at) / Fold change /veh FAM212B (11763350_a_at) / RFU PLEKHG5 (11743358_a_at) / Fold change /veh PLEKHG5 (11743358_a_at) / RFU ZSCAN30 (11745921_a_at) / Fold change /veh ZSCAN30 (11745921_a_at) / RFU CMKLR1 (11741424_a_at) / Fold change /veh CMKLR1 (11741424_a_at) / RFU LOC101060620 /// MAPK8IP1 (11723275_at) / Fold change /veh LOC101060620 /// MAPK8IP1 (11723275_at) / RFU SPTSSB (11747773_x_at) / Fold change /veh SPTSSB (11747773_x_at) / RFU PRSS12 (11739890_at) / Fold change /veh PRSS12 (11739890_at) / RFU BIN1 (11741810_x_at) / Fold change /veh BIN1 (11741810_x_at) / RFU WNT11 (11732464_a_at) / Fold change /veh WNT11 (11732464_a_at) / RFU C10orf10 (11716521_a_at) / Fold change /veh C10orf10 (11716521_a_at) / RFU C5orf56 (11738089_at) / Fold change /veh C5orf56 (11738089_at) / RFU CYB561 (11721691_x_at) / Fold change /veh CYB561 (11721691_x_at) / RFU ANKRD19P (11752326_a_at) / Fold change /veh ANKRD19P (11752326_a_at) / RFU OR2T12 /// OR2T33 /// OR2T8 (11738714_s_at) / Fold change /veh OR2T12 /// OR2T33 /// OR2T8 (11738714_s_at) / RFU VCAN (11748164_a_at) / Fold change /veh VCAN (11748164_a_at) / RFU JSRP1 (11732532_at) / Fold change /veh JSRP1 (11732532_at) / RFU KRTAP10-11 (11738290_x_at) / Fold change /veh KRTAP10-11 (11738290_x_at) / RFU MYO3A (11730013_a_at) / Fold change /veh MYO3A (11730013_a_at) / RFU EBF3 (11725865_a_at) / Fold change /veh EBF3 (11725865_a_at) / RFU CAMK2N1 (11719241_x_at) / Fold change /veh CAMK2N1 (11719241_x_at) / RFU C5orf56 (11738088_a_at) / Fold change /veh C5orf56 (11738088_a_at) / RFU OLFML3 (11715873_a_at) / Fold change /veh OLFML3 (11715873_a_at) / RFU LOC100653217 /// NTM (11731650_a_at) / Fold change /veh LOC100653217 /// NTM (11731650_a_at) / RFU MAPK11 (11762145_a_at) / Fold change /veh MAPK11 (11762145_a_at) / RFU FIZ1 (11724087_x_at) / Fold change /veh FIZ1 (11724087_x_at) / RFU OASL (11726364_x_at) / Fold change /veh OASL (11726364_x_at) / RFU SOX15 (11748057_x_at) / Fold change /veh SOX15 (11748057_x_at) / RFU CD79A (11719716_a_at) / Fold change /veh CD79A (11719716_a_at) / RFU HIST1H1D (11736915_at) / Fold change /veh HIST1H1D (11736915_at) / RFU CASKIN2 (11723855_a_at) / Fold change /veh CASKIN2 (11723855_a_at) / RFU LOC730098 (11760151_x_at) / Fold change /veh LOC730098 (11760151_x_at) / RFU OR4N2 (11742367_at) / Fold change /veh OR4N2 (11742367_at) / RFU PRRT2 (11749266_a_at) / Fold change /veh PRRT2 (11749266_a_at) / RFU SNX32 (11753110_a_at) / Fold change /veh SNX32 (11753110_a_at) / RFU CDHR5 (11726645_a_at) / Fold change /veh CDHR5 (11726645_a_at) / RFU RCAN1 (11760418_a_at) / Fold change /veh RCAN1 (11760418_a_at) / RFU FAM167A (11723789_a_at) / Fold change /veh FAM167A (11723789_a_at) / RFU FAM26E (11764081_at) / Fold change /veh FAM26E (11764081_at) / RFU ISYNA1 (11749810_s_at) / Fold change /veh ISYNA1 (11749810_s_at) / RFU ACY1 (11761880_at) / Fold change /veh ACY1 (11761880_at) / RFU 11764098_at / Fold change /veh 11764098_at / RFU SAMD14 (11745864_x_at) / Fold change /veh SAMD14 (11745864_x_at) / RFU NPB (11741838_a_at) / Fold change /veh NPB (11741838_a_at) / RFU TMPRSS6 (11731388_a_at) / Fold change /veh TMPRSS6 (11731388_a_at) / RFU KRTAP10-2 (11738614_at) / Fold change /veh KRTAP10-2 (11738614_at) / RFU ARHGAP8 /// PRR5-ARHGAP8 (11727945_x_at) / Fold change /veh ARHGAP8 /// PRR5-ARHGAP8 (11727945_x_at) / RFU KRTAP5-7 /// NADSYN1 (11734609_at) / Fold change /veh KRTAP5-7 /// NADSYN1 (11734609_at) / RFU RASL12 (11751679_a_at) / Fold change /veh RASL12 (11751679_a_at) / RFU CDKN2B (11736163_a_at) / Fold change /veh CDKN2B (11736163_a_at) / RFU PRF1 (11729649_at) / Fold change /veh PRF1 (11729649_at) / RFU, ZNF638 /// ZNF638-IT1 / Fold change vs veh, ZNF638 /// ZNF638-IT1 / RFU, PANK3 / Fold change vs veh, PANK3 / RFU, SH3YL1 / Fold change vs veh, SH3YL1 / RFU, ZEB2 / Fold change vs veh, ZEB2 / RFU, NRIP1 / Fold change vs veh, NRIP1 / RFU, PTTG1IP / Fold change vs veh, PTTG1IP / RFU, CAPN2 / Fold change vs veh, CAPN2 / RFU, MED14 / Fold change vs veh, MED14 / RFU, SNORA58 / Fold change vs veh, SNORA58 / RFU, C1orf63 / Fold change vs veh, C1orf63 / RFU, LRRFIP1 / Fold change vs veh, LRRFIP1 / RFU, NDUFAF7 / Fold change vs veh, NDUFAF7 / RFU, SLC12A2 / Fold change vs veh, SLC12A2 / RFU, IBTK / Fold change vs veh, IBTK / RFU, ESF1 / Fold change vs veh, ESF1 / Fold change vs veh, TMEM50B / RFU, TAOK1 / Fold change vs veh, TAOK1 / RFU, ACBD3 / Fold change vs veh, ACBD3 / RFU, TMA16 / Fold change vs veh, TMA16 / RFU, RWDD3 / Fold change vs veh, RWDD3 / RFU, BCAT1 / Fold change vs veh, BCAT1 / RFU, EDEM3 / Fold change vs veh, EDEM3 / RFU, TMEM33 / Fold change vs veh, TMEM33 / RFU, WDR75 / Fold change vs veh, WDR75 / RFU, AHCTF1 / Fold change vs veh, AHCTF1 / RFU, TFRC / Fold change vs veh, TFRC / RFU, ZDHHC17 / Fold change vs veh, ZDHHC17 / RFU, NOM1 / Fold change vs veh, NOM1 / RFU, ARL8B / Fold change vs veh, ARL8B / RFU, ZBTB11 / Fold change vs veh, ZBTB11 / RFU, TAMM41 / Fold change vs veh, TAMM41 / RFU, KIAA1704 /// LOC100996395 / Fold change vs veh, KIAA1704 /// LOC100996395 / RFU, ING1 / Fold change vs veh, ING1 / RFU, TRMT61B / Fold change vs veh, TRMT61B / RFU, FUBP3 / Fold change vs veh, FUBP3 / RFU, TP53 / Fold change vs veh, TP53 / RFU, TNKS2 / Fold change vs veh, TNKS2 / RFU, ZFP14 / Fold change vs veh, ZFP14 / RFU, ACTR2 / Fold change vs veh, ACTR2 / RFU, PPP3R1 / Fold change vs veh, PPP3R1 / RFU, PIK3R1 / Fold change vs veh, PIK3R1 / RFU, HNRNPA1 / Fold change vs veh, HNRNPA1 / RFU, RNF170 / Fold change vs veh, RNF170 / RFU, ZNF28 / Fold change vs veh, ZNF28 / RFU, RNGTT / Fold change vs veh, RNGTT / RFU, OGT / Fold change vs veh, OGT / RFU, BRD1 / Fold change vs veh, BRD1 / RFU, MARS / Fold change vs veh, MARS / RFU, ZNF655 / Fold change vs veh, ZNF655 / RFU, FAHD1 / Fold change vs veh, FAHD1 / RFU, BDP1 / Fold change vs veh, BDP1 / RFU, LRRCC1 / Fold change vs veh, LRRCC1 / RFU, ARID1A / Fold change vs veh, ARID1A / RFU, ZNF146 / Fold change vs veh, ZNF146 / RFU, ZNF330 / Fold change vs veh, ZNF330 / RFU, GPN3 / Fold change vs veh, GPN3 / RFU, C9orf123 / Fold change vs veh, C9orf123 / RFU, N4BP2L2 / Fold change vs veh, N4BP2L2 / RFU, ARFIP1 / Fold change vs veh, ARFIP1 / RFU, FAM179B / Fold change vs veh, FAM179B / RFU, BCL10 / Fold change vs veh, BCL10 / RFU, UHRF1BP1L / Fold change vs veh, UHRF1BP1L / RFU, BET1 / Fold change vs veh, BET1 / RFU, CNOT2 / Fold change vs veh, CNOT2 / RFU, ZNF268 / Fold change vs veh, ZNF268 / Fold change vs veh, ZNF507 / RFU, DGCR2 / Fold change vs veh, DGCR2 / RFU, WDSUB1 / Fold change vs veh, WDSUB1 / Fold change vs veh, HSP90B1 /// MIR3652 / RFU, ADSS / Fold change vs veh, ADSS / RFU, GK / Fold change vs veh, GK / RFU, ZNF148 / Fold change vs veh, ZNF148 / RFU, TAF9 / Fold change vs veh, TAF9 / RFU, SLC1A5 / Fold change vs veh, SLC1A5 / RFU, SLMO2 / Fold change vs veh, SLMO2 / RFU, ABCC4 / Fold change vs veh, ABCC4 / RFU, LOC101060439 /// RAP1B / Fold change vs veh, LOC101060439 /// RAP1B / RFU, RFX7 / Fold change vs veh, RFX7 / RFU, GTPBP10 / Fold change vs veh, GTPBP10 / RFU, CNEP1R1 / Fold change vs veh, CNEP1R1 / RFU, BIVM-ERCC5 /// ERCC5 / Fold change vs veh, BIVM-ERCC5 /// ERCC5 / RFU, ILF3 / Fold change vs veh, ILF3 / RFU 11762660_at / Fold change /veh 11762660_at / RFU VCAN (11757783_s_at) / Fold change /veh VCAN (11757783_s_at) / RFU DDX43 (11728927_at) / Fold change /veh DDX43 (11728927_at) / RFU KRT8 (11758188_x_at) / Fold change /veh KRT8 (11758188_x_at) / RFU NKD1 (11759106_at) / Fold change /veh NKD1 (11759106_at) / RFU SRD5A1 (11742802_a_at) / Fold change /veh SRD5A1 (11742802_a_at) / RFU TPSAB1 /// TPSB2 (11721975_s_at) / Fold change /veh TPSAB1 /// TPSB2 (11721975_s_at) / RFU GSTM3 (11746129_a_at) / Fold change /veh GSTM3 (11746129_a_at) / RFU IL23R (11737362_x_at) / Fold change /veh IL23R (11737362_x_at) / RFU TMEM51 (11727254_a_at) / Fold change /veh TMEM51 (11727254_a_at) / RFU PIWIL2 (11732686_x_at) / Fold change /veh PIWIL2 (11732686_x_at) / RFU ORM1 (11744905_x_at) / Fold change /veh ORM1 (11744905_x_at) / RFU CCDC152 (11743942_at) / Fold change /veh CCDC152 (11743942_at) / RFU ECM1 (11717891_a_at) / Fold change /veh ECM1 (11717891_a_at) / RFU IL23R (11748794_a_at) / Fold change /veh IL23R (11748794_a_at) / RFU TNFAIP8L3 (11732012_x_at) / Fold change /veh TNFAIP8L3 (11732012_x_at) / RFU MBOAT4 (11741988_at) / Fold change /veh MBOAT4 (11741988_at) / RFU 11764193_at / Fold change /veh 11764193_at / RFU TMEM53 (11763286_at) / Fold change /veh TMEM53 (11763286_at) / RFU MAGEB2 (11727129_at) / Fold change /veh MAGEB2 (11727129_at) / RFU TMEM200A (11744735_a_at) / Fold change /veh TMEM200A (11744735_a_at) / RFU CCDC152 (11751479_a_at) / Fold change /veh CCDC152 (11751479_a_at) / RFU FAM211A (11726209_a_at) / Fold change /veh FAM211A (11726209_a_at) / RFU RGS16 (11746705_a_at) / Fold change /veh RGS16 (11746705_a_at) / RFU VCAN (11755009_s_at) / Fold change /veh VCAN (11755009_s_at) / RFU RHOB (11743442_s_at) / Fold change /veh RHOB (11743442_s_at) / RFU RGS16 (11720943_a_at) / Fold change /veh RGS16 (11720943_a_at) / RFU RGS16 (11720944_at) / Fold change /veh RGS16 (11720944_at) / RFU, VPS4B / Fold change vs veh, VPS4B / RFU, CREB1 / Fold change vs veh, CREB1 / RFU, DNAJC13 / Fold change vs veh, DNAJC13 / RFU, GNAQ / Fold change vs veh, GNAQ / RFU, CDK5R1 / Fold change vs veh, CDK5R1 / RFU, ZRANB3 / Fold change vs veh, ZRANB3 / RFU, CUL4A / Fold change vs veh, CUL4A / RFU, CCNY / Fold change vs veh, CCNY / RFU, UFL1 / Fold change vs veh, UFL1 / RFU, COG3 / Fold change vs veh, COG3 / RFU, DIAPH2 / Fold change vs veh, DIAPH2 / RFU, SKA2 / Fold change vs veh, SKA2 / RFU, AFF3 / Fold change vs veh, AFF3 / RFU, LMF1 / Fold change vs veh, LMF1 / RFU, IPO11 / Fold change vs veh, IPO11 / RFU, DFFB / Fold change vs veh, DFFB / RFU, FOXP1 / Fold change vs veh, FOXP1 / RFU, CARD8 / Fold change vs veh, CARD8 / RFU, STRN3 / Fold change vs veh, STRN3 / RFU, ADK / Fold change vs veh, ADK / RFU, RASSF2 / Fold change vs veh, RASSF2 / RFU, WIPF1 / Fold change vs veh, WIPF1 / RFU, LARP1B / Fold change vs veh, LARP1B / RFU, RASA1 / Fold change vs veh, RASA1 / RFU, RB1 / Fold change vs veh, RB1 / RFU, PPFIA1 / Fold change vs veh, PPFIA1 / RFU, MAT2A / Fold change vs veh, MAT2A / RFU, CCT5 / Fold change vs veh, CCT5 / RFU, WDR92 / Fold change vs veh, WDR92 / RFU, CUX1 / Fold change vs veh, CUX1 / RFU, TTC7A / Fold change vs veh, TTC7A / RFU, TMEM135 / Fold change vs veh, TMEM135 / RFU, DEPTOR / Fold change vs veh, DEPTOR / RFU, CPM / Fold change vs veh, CPM / RFU, DNAJB6 / Fold change vs veh, DNAJB6 / RFU, CACNA2D3 / Fold change vs veh, CACNA2D3 / RFU, DTX4 / Fold change vs veh, DTX4 / RFU, TFCP2 / Fold change vs veh, TFCP2 / RFU, GMCL1 /// GMCL1P1 / Fold change vs veh, GMCL1 /// GMCL1P1 / RFU, AEBP2 / Fold change vs veh, AEBP2 / RFU, SNHG1 /// SNORD22 /// SNORD25 /// SNORD26 /// SNORD27 /// SNORD28 /// SNORD29 /// SNORD31 / Fold change vs veh, SNHG1 /// SNORD22 /// SNORD25 /// SNORD26 /// SNORD27 /// SNORD28 /// SNORD29 /// SNORD31 / Fold change (Aza/veh), C12orf56 (ProbeSet 11735607_a_at) / Fold change (ACY-1035/veh), C12orf56 (ProbeSet 11735607_a_at) / Fold change (Aza/veh), FGFR1OP (ProbeSet 11751329_s_at) / Fold change (ACY-1035/veh), FGFR1OP (ProbeSet 11751329_s_at) / Fold change (Aza/veh), VPS36 (ProbeSet 11739960_a_at) / Fold change (ACY-1035/veh), VPS36 (ProbeSet 11739960_a_at) / RFU SYPL1 (11715823_x_at) / Fold change /veh SYPL1 (11715823_x_at) / RFU IGFBP7 (11715501_s_at) / Fold change /veh IGFBP7 (11715501_s_at) / RFU REEP3 (11722064_at) / Fold change /veh REEP3 (11722064_at) / RFU IGLL1 (11728026_x_at) / Fold change /veh IGLL1 (11728026_x_at): dose or concentration left out as unconfirmed. As to conditions: ProbeSet 11724526_at; LIST B.

`Nc1ccc(-c2cccs2)cc1NC(=O)c1ccc2c(c1)cc(C1CC1)n2CCN1CCOCC1` [ACY-1035]: the “RFU, FAHD1” value came out at 149.86 RFU.
